Experimental data published in US8445536B2, “Arginine-containing compositions and methods for increasing blood flow using same” (Ajinomoto Co., Inc., priority 2005, dated 2013).
Like-named read-outs stand apart in the source and are kept apart here.

Columns and labels:
[1] = Test Example 3: concentration of free arginine in the blood plasma on intravenous arginine; assay type: in vivo, rats; details: for concentration at 10 min / concentration at 20 min / concentration at 30 min / concentration at 40 min: Sprague-Dawley, rat, plasma, iv
From the text: (c) Rats were anesthetized by pentobarbital. […] (b) Administration: […]

male SD rats [2] = experiment: Test Example 4: blood pressure when administering arginine and glutamine to rats; details: 50 mg arginine/kg over 30 min; 20 to 30 min after injection; average of 3 rats
male SD rats [3] = experiment: Test Example 2: variation of blood pressure; details: 50 or 150 mg of arginine per 1 kg body weight, iv over 30 min
male SD rats [4] = experiment: Test Example 1: blood flow at the skin of the lower thighs, laser Doppler blood-flowmeter; details: for Maximum increasing rate of blood flow (Before administration: 100%): skin of lower thighs
male SD rats [5] = experiment: Test Example 1: blood pressure when administering arginine to rats (arterial catheter); details: 500 mg of arginine per 1 kg body weight, iv over 30 min
male SD rats [6] = experiment: Test Example 5: amounts of Evans' Blue delivered to various organs after arginine
Description: (b) Operation: A catheter was inserted into the jugular vein of rats under anesthesia. Then, a blood sample was collected from the catheter.
After sufficient time, the rats were euthanasized, and the muscles, digestive tracts, liver, kidneys, spleen, heart, brain, adipose tissues, and abdominal skin were extracted. Then, Evans' Blue was released by immersing each organ in a formalin solution, and the amount of Evans' Blue in each organ was calculated from the absorbance obtained by the spectrophotometer.

male SD rats [7] = experiment: Test Example 2: blood flow in the capillaries of various organs, microsphere method
Description: (b) Operation: Catheters were inserted into the carotid artery, jugular vein, and femoral artery of rats under anesthesia.
After taking enough time from the second administration of the microsphere, the rats were euthanasized, and the muscles, digestive tracts, liver, kidneys, spleen, heart, brain, adipose tissues, and abdominal skin were extracted. Then, the microspheres contained in each organ were collected and the rate of change in blood flow was calculated for each organ from the amount of the microspheres.

human beings = human beings of average weight 78 kg, cited from earlier work
[8] = 50 mg of arginine per 1 kg body weight
[9] = 150 mg of arginine per 1 kg body weight

Compound: N=C(N)NCCC[C@H](N)C(=O)O [arginine]
- rise of the concentration of free arginine in the blood plasma at maximum [1, 8]: 46.1 micrograms per 1 mL
- rise of the concentration of free arginine in the blood plasma at maximum [1, 9]: 177.5 micrograms per 1 mL
- concentration at 10 min ([1]; 50 mg/kg): 43.6 µg/mL
- concentration at 20 min ([1]; 50 mg/kg): 46.1 µg/mL
- concentration at 30 min ([1]; 50 mg/kg): 38.8 µg/mL
- concentration at 40 min ([1]; 50 mg/kg): 15700 ng/mL
- concentration at 10 min ([1]; 150 mg/kg): 156 µg/mL
- concentration at 20 min ([1]; 150 mg/kg): 115 µg/mL
- concentration at 30 min ([1]; 150 mg/kg): 178 µg/mL
- concentration at 40 min ([1]; 150 mg/kg): 77200 ng/mL
- Maximum variation of blood pressure (male SD rats [2]): +11.4 mmHg
- variation of blood pressure (male SD rats [3]): ≤ 10 mmHg
- Maximum increasing rate of blood flow (Before administration: 100%) (male SD rats [4]; 50 mg arginine/kg iv over 30 min, 20 to 30 min after injection): +43.9%
- Maximum increasing rate of blood flow (Before administration: 100%) (male SD rats [4]; 150 mg arginine/kg iv over 30 min, 20 to 30 min after injection): +29.3%
- Maximum increasing rate of blood flow (Before administration: 100%) (male SD rats [4]; 500 mg arginine/kg iv over 30 min, 50 to 60 min after injection): +85.0%
- amount of blood flowing to the skin of the lower thighs (male SD rats [4]; all rats given 50 mg or more of arginine per 1 kg body weight): increased
- death due to rapid reduction of blood pressure (male SD rats [5]): Two out of three rats died
- delivered amounts of Evans' Blue to the organs (tendency) (male SD rats [6]; 50 or 150 mg of arginine per 1 kg, muscles, digestive tract, liver, kidneys, spleen, brain, adipose tissues, skin): increased
- Changes in the amounts of Evans' Blue after administering arginine (before administration 100%) (male SD rats [6]; Abdominal skin, 150 mg/kg of BW): 207%
- Changes in the amounts of Evans' Blue after administering arginine (before administration 100%) (male SD rats [6]; Adipose tissues, 50 mg/kg of BW): 430%
- Changes in the amounts of Evans' Blue after administering arginine (before administration 100%) (male SD rats [6]; Adipose tissues, 150 mg/kg of BW): 160%
- Changes in the amounts of Evans' Blue after administering arginine (before administration 100%) (male SD rats [6]; Back skin, 50 mg/kg of BW): 315%
- Changes in the amounts of Evans' Blue after administering arginine (before administration 100%) (male SD rats [6]; Back skin, 150 mg/kg of BW): 331%
- Changes in the amounts of Evans' Blue after administering arginine (before administration 100%) (male SD rats [6]; Brain, 50 mg/kg of BW): 169%
- Changes in the amounts of Evans' Blue after administering arginine (before administration 100%) (male SD rats [6]; Duodenum, 50 mg/kg of BW): 143%
- Changes in the amounts of Evans' Blue after administering arginine (before administration 100%) (male SD rats [6]; Duodenum, 150 mg/kg of BW): 85%
- Changes in the amounts of Evans' Blue after administering arginine (before administration 100%) (male SD rats [6]; Gastrocnemius muscle, 50 mg/kg of BW): 219%
- Changes in the amounts of Evans' Blue after administering arginine (before administration 100%) (male SD rats [6]; Gastrocnemius muscle, 150 mg/kg of BW): 154%
- Changes in the amounts of Evans' Blue after administering arginine (before administration 100%) (male SD rats [6]; Heart, 50 mg/kg of BW): 87%
- Changes in the amounts of Evans' Blue after administering arginine (before administration 100%) (male SD rats [6]; Heart, 150 mg/kg of BW): 85%
- Changes in the amounts of Evans' Blue after administering arginine (before administration 100%) (male SD rats [6]; Kidneys, 50 mg/kg of BW): 161%
- Changes in the amounts of Evans' Blue after administering arginine (before administration 100%) (male SD rats [6]; Liver, 50 mg/kg of BW): 181%
- Changes in the amounts of Evans' Blue after administering arginine (before administration 100%) (male SD rats [6]; Liver, 150 mg/kg of BW): 173%
- Changes in the amounts of Evans' Blue after administering arginine (before administration 100%) (male SD rats [6]; Spleen, 50 mg/kg of BW): 101%
- Changes in the amounts of Evans' Blue after administering arginine (before administration 100%) (male SD rats [6]; Spleen, 150 mg/kg of BW): 92%
- blood flow in the capillaries of the muscles and the brain (male SD rats [7]; [8]): significantly increased
- blood flow in the capillaries, all organs measured (male SD rats [7]; [9]): increased for all organs measured
- Changes in blood flow after the administration of arginine (before administration 100%) (male SD rats [7]; Abdominal skin, 50 mg/kg of body weight): 117%
- Changes in blood flow after the administration of arginine (before administration 100%) (male SD rats [7]; Abdominal skin, 150 mg/kg of body weight): 134%
- Changes in blood flow after the administration of arginine (before administration 100%) (male SD rats [7]; Adipose tissues, 50 mg/kg of body weight): 99%
- Changes in blood flow after the administration of arginine (before administration 100%) (male SD rats [7]; Adipose tissues, 150 mg/kg of body weight): 116%
- Changes in blood flow after the administration of arginine (before administration 100%) (male SD rats [7]; Back skin, 50 mg/kg of body weight): 107%
- Changes in blood flow after the administration of arginine (before administration 100%) (male SD rats [7]; Back skin, 150 mg/kg of body weight): 118%
- Changes in blood flow after the administration of arginine (before administration 100%) (male SD rats [7]; Brain, 50 mg/kg of body weight): 126%
- Changes in blood flow after the administration of arginine (before administration 100%) (male SD rats [7]; Brain, 150 mg/kg of body weight): 137%
- Changes in blood flow after the administration of arginine (before administration 100%) (male SD rats [7]; Duodenum, 50 mg/kg of body weight): 123%
- Changes in blood flow after the administration of arginine (before administration 100%) (male SD rats [7]; Duodenum, 150 mg/kg of body weight): 142%
- Changes in blood flow after the administration of arginine (before administration 100%) (male SD rats [7]; Heart, 50 mg/kg of body weight): 126%
- Changes in blood flow after the administration of arginine (before administration 100%) (male SD rats [7]; Heart, 150 mg/kg of body weight): 140%
- Changes in blood flow after the administration of arginine (before administration 100%) (male SD rats [7]; Kidneys, 50 mg/kg of body weight): 86%
- Changes in blood flow after the administration of arginine (before administration 100%) (male SD rats [7]; Kidneys, 150 mg/kg of body weight): 91%
- Changes in blood flow after the administration of arginine (before administration 100%) (male SD rats [7]; Liver, 50 mg/kg of body weight): 92%
- Changes in blood flow after the administration of arginine (before administration 100%) (male SD rats [7]; Liver, 150 mg/kg of body weight): 101%
- Changes in blood flow after the administration of arginine (before administration 100%) (male SD rats [7]; Muscles, 50 mg/kg of body weight): 164%
- Changes in blood flow after the administration of arginine (before administration 100%) (male SD rats [7]; Muscles, 150 mg/kg of body weight): 157%
- Changes in blood flow after the administration of arginine (before administration 100%) (male SD rats [7]; Spleen, 50 mg/kg of body weight): 104%
- Changes in blood flow after the administration of arginine (before administration 100%) (male SD rats [7]; Spleen, 150 mg/kg of body weight): 115%
- vascular resistance (human beings; 6 g arginine parenterally): did not cause either effect
- vascular resistance (human beings; 30 g arginine parenterally): lowered
